Measurements taken from patent publication US9278912B2, “C13-hydroxy derivatives of oleanolic acid and methods of use thereof” (priority 2012, dated 2016).

Test system: IFNγ-induced NO production in RAW264.7 mouse macrophages
Experiment: Suppression of IFNγ-induced NO production (Nitric Oxide Production and Cell Viability Assay)
Assay type: cell-based
Settings: RAW264.7 cells, 2 h pretreatment, then IFNγ 24 h, Griess reagent, normalized to cell viability (WST-1)
Experimental: Assay results for the suppression of IFNγ-induced NO production are shown for several of the compounds of the present invention in Table 1 below. In the right-hand column of this table under the RAW264.7 heading, the results are compared to those of bardoxolone methyl (RTA 402, CDDO-Me). Details regarding this assay are provided in the Examples section below. Nitric Oxide Production and Cell Viability Assay. […] On the next day, cells were pretreated with DMSO or drug (0-200 nM dose range) for 2 hours, and then treated with recombinant mouse IFNγ (R&D Systems) for 24 hours. Nitric Oxide concentration in media was determined using the Griess reagent system (Promega). Cell viability was determined using WST-1 reagent (Roche). IC50 values were determined based on the suppression of IFNγ induced Nitric Oxide production normalized to cell viability.

| Structure (SMILES) | IC50 [nM] |
| --- | --- |
| COC(=O)[C@]12CCC(C)(C)C[C@H]1[C@@]1(O)C(=O)C=C3[C@@]4(C)C=C(C#N)C(=O)C(C)(C)[C@@H]4CC[C@@]3(C)[C@]1(C)CC2 [TX63421] | 2.3 |
| CCOC(=O)[C@]12CCC(C)(C)C[C@H]1[C@@]1(O)C(=O)C=C3[C@@]4(C)C=C(C#N)C(=O)C(C)(C)[C@@H]4CC[C@@]3(C)[C@]1(C)CC2 [TX63469] | 2.2 |
| CCCCC1O[C@]23C(=O)C=C4[C@@]5(C)C=C(C#N)C(=O)C(C)(C)[C@@H]5CC[C@@]4(C)[C@]2(C)CC[C@]12CCC(C)(C)C[C@H]23 (stereo partly shown) [TX63484] | 37 |
| CC1(C)CC[C@]2(CO)CC[C@]3(C)[C@](O)([C@H](O)C=C4[C@@]5(C)C=C(C#N)C(=O)C(C)(C)[C@@H]5CC[C@]43C)[C@@H]2C1 [TX63489] | 61 |
| CC1(C)CC[C@]2(CO)CC[C@@]3(C)[C@]4(C)CC[C@H]5C(C)(C)C(=O)C(C#N)=C[C@]5(C)C4=CC(=O)[C@]3(O)[C@@H]2C1 [TX63490] | 1.5 |
| CC(C)C1O[C@]23C(=O)C=C4[C@@]5(C)C=C(C#N)C(=O)C(C)(C)[C@@H]5CC[C@@]4(C)[C@]2(C)CC[C@]12CCC(C)(C)C[C@H]23 (stereo partly shown) [TX63496] | 37 |
| CC(=O)OC[C@]12CCC(C)(C)C[C@H]1[C@@]1(O)[C@H](OC(C)=O)C=C3[C@@]4(C)C=C(C#N)C(=O)C(C)(C)[C@@H]4CC[C@@]3(C)[C@]1(C)CC2 [TX63498] | 24 |
| CC(=O)OC[C@]12CCC(C)(C)C[C@H]1[C@@]1(O)C(=O)C=C3[C@@]4(C)C=C(C#N)C(=O)C(C)(C)[C@@H]4CC[C@@]3(C)[C@]1(C)CC2 [TX63499] | 2.1 |
| CC1(C)CC[C@]2(C(N)=O)CC[C@@]3(C)[C@]4(C)CC[C@H]5C(C)(C)C(=O)C(C#N)=C[C@]5(C)C4=CC(=O)[C@]3(O)[C@@H]2C1 [TX63530] | 1.4 |
| CCNC(=O)[C@]12CCC(C)(C)C[C@H]1[C@@]1(O)C(=O)C=C3[C@@]4(C)C=C(C#N)C(=O)C(C)(C)[C@@H]4CC[C@@]3(C)[C@]1(C)CC2 [TX63536] | 5.6 |
